Test results: patent US8673910B2, “Proteasome inhibitors for selectively inducing apoptosis in cancer cells” (H. Lee Moffitt Cancer Center and Research Institute, priority 2008, dated 2014)
“And” between values parts separate entries of the source, which are not always exact repeats. Equal entries are not always repeated. Where two headings read alike, the source gives them in different places.

Experiments:
[1] = tested on: primary multiple myeloma cells isolated from patients' bone marrow; experiment: Proliferation of primary multiple myeloma cells (Trypan blue); format: cell-based, human; conditions: primary MM cells, 24 h treatment, Table 5: one value per patient, mean over patients
Description: (§1) MM patients' bone marrow samples were collected from Liquid Tissue Bank facility. Freshly isolated bone marrow samples were fractionated by Ficoll-Paque (Pharmacia Biotech, Piscataway, N.J.) sedimentation. The mononuclear cellular layer was then resuspended in RPMI-1640 containing 10% heat-inactivated fetal bovine serum, 10 mM HEPES (pH 7.4), sodium pyruvate, L-glutamine, and 1% penicillin-streptomycin.
Adherent cells were harvested using trypsinization and pooled with suspension cells from media supernatant by pelleting at 300 g for 5 min at 4° C. The cells were then resuspended in an appropriate volume of media by pipetting gently up and down. Two 20 μl aliquots were removed and combined with an equal volume of 0.4% Trypan blue and allowed to mix for 1 minute. A 10 μl volume was loaded onto a hemacytometer and cells were scored as live or dead based on Trypan blue dye exclusion and the percentage of dead cell number to total cell number was calculated. To calculate the percentage of proliferation, the number of live cells in the treated samples was divided by the number of live cells in the untreated vehicle control.

[2] = tested on: primary multiple myeloma cells isolated from patients' bone marrow; experiment: Viability of primary multiple myeloma cells (MTT assay); format: cell-based, human
Description: as §1
Cells were plated in 96-well plates in 100 μl medium and allowed to attach overnight. […] […] Media was then aspirated and DMSO was added. Cells were incubated for 10 min at room temperature while shaking, and the absorbance was determined at 540 nm using a μQuant spectrophotometric plate reader (Bio-TEK, Winooski, Vt.).

[3] = target: T1, tumor T-L activity (A549 tumors) (Homo sapiens, UniProt Q99436); experiment: Proteasome activity in A549 tumor lysates after in vivo treatment; parameters: species or system nude mice; conditions: mouse, ip; A549 tumors extracted 2 hours after last i.p. injection (1 mpk), vs DMSO-treated controls
T1 construct: from tissue; host or cells: A549 human lung tumour xenografts grown in nude mice
Description: (§3) To determine proteasome activity in whole cell extracts from cultured cells (5 μg) or tumor and liver tissue extracts (30 μg) from nude mice, the same assay was used except that the buffer was changed to 20 mM HEPES, 0.5 mM EDTA, pH 8.0.
(§4) Whole cell extracts were prepared as follows: Cells were harvested, washed with PBS twice, and homogenized in a lysis buffer (50 mM Tris-HCl, pH 8.0, 5 mM EDTA, 150 mM NaCl, 0.5% NP-40) for 30 min at 4° C. Cell extracts from tumors and livers of nude mice were prepared in 50 mM HEPES, 0.5 mM EDTA, pH 8.0. Cell lysates were centrifuged at 12,000 g for 15 min, and the supernatants were collected as whole cell extracts.
(§5) Nude mice (Charles River Laboratories, Wilmington, Mass.) were maintained and treated in accordance with the Institutional Animal Care and Use Committee procedures and guidelines. […] Exponentially growing MCF-7 and A549 cells were harvested via trypsinization, pelleted at 300 g for 5 minutes, resuspended in sterile PBS (Invitrogen) at 10^7 cells per 100 μl, and injected into each flank of mice. The tumor xenografts were monitored with an electronic caliper every other day for 16 days. Tumor volume was calculated using the formula V=W^2L, where width is the largest diameter and length is the smallest diameter. When the tumors reached ˜200 mm^3, the animals were randomized and treatment schedules were implemented. […]

[4] = target: T2, tumor CT-L activity (A549 tumors) (Homo sapiens, UniProt P20618+P28074); experiment: as above; parameters: species or system nude mice; conditions: mouse, ip; A549 tumors extracted 2 hours after last i.p. injection (1 mpk), vs DMSO-treated controls
T2 construct: from tissue; host or cells: A549 human lung tumour xenografts grown in nude mice
Description: as §3, §4, §5

[5] = tested on: A549 lung cancer xenografts; experiment: Antitumor study of human tumor xenografts in nude mice (A549); format: in vivo; conditions: 1 mpk i.p. 2× weekly; for average tumor size of A549-derived xenografts: start at about 200 mm^3
Description: Nude mice (Charles River Laboratories, Wilmington, Mass.) were maintained and treated in accordance with the Institutional Animal Care and Use Committee procedures and guidelines. Seven days before inoculation with MCF-7 cells, the animals were fully anesthetized for subcutaneous implantation of estradiol pellets (0.25 mg per pellet, 60-day release; Innovative Research of America, Sarasota, Fla.) on the dorsal surface of mice. Exponentially growing MCF-7 and A549 cells were harvested via trypsinization, pelleted at 300 g for 5 minutes, resuspended in sterile PBS (Invitrogen) at 10^7 cells per 100 μl, and injected into each flank of mice. The tumor xenografts were monitored with an electronic caliper every other day for 16 days. Tumor volume was calculated using the formula V=W^2L, where width is the largest diameter and length is the smallest diameter. When the tumors reached ˜200 mm^3, the animals were randomized and treatment schedules were implemented. […] 2 hours after the last injections animals were sacrificed via CO2 inhalation, and then tumors and livers were harvested and snap frozen in liquid N2.

[6] = target: T3, chymotrypsin-like (CT-L) activity of purified 20S rabbit proteasome (Oryctolagus cuniculus, UniProt G1T4Q9); experiment: Proteolytic activity of purified 20S proteasome, fluorogenic substrate Suc-Leu-Leu-Val-Tyr-AMC; format: biochemical
T3 sequence (G1T4Q9 1-263): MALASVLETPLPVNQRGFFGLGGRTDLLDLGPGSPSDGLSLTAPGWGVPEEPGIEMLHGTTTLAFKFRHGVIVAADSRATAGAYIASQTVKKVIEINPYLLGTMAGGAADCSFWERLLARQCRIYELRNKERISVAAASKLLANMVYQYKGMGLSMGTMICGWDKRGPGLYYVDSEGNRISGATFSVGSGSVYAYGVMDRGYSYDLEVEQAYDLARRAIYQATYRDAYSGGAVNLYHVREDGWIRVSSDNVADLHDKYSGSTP
Description: After incubation, production of hydrolyzed 7-amido-4-methyl-coumarin (AMC) groups was measured using a WALLAC Victor^2 1420 Multilabel Counter with an excitation filter of 355 nm and an emission filter of 460 nm (Perkin Elmer Life Sciences, Turku, Finland).
The inhibitory activity of the compounds was calculated based on vehicle control). This technique monitors the hydrolytic release of a coumarin species from a synthetic peptide substrate.
The assay was conducted by using a fluorogenic peptide as substrate to test synthesized compounds for inhibitory activity against the chymotrypsin-like activity of the purified rabbit 20S proteasome. Briefly, 70 ng of purified 20S proteasome was incubated with 20 μM Suc-Leu-Leu-Val-Tyr-AMC for 1 hour at 37° C. in 100 μl of assay buffer (50 mM Tris-HCl, pH 7.6) with or without inhibitors. After incubation, production of hydrolyzed 7-amido-4-methyl-coumarin (AMC) was measured using a WALLAC Victor2 1420 Multilabel Counter with an excitation filter of 355 nm and an emission filter of 460 nm (Perkin Elmer Life Sciences, Turku, Finland). The inhibitory activity of the compounds was calculated based on vehicle control.

[7] = target: tumor PGPH activity (A549 tumors) (Homo sapiens, UniProt P28072); experiment: Proteasome activity in A549 tumor lysates after in vivo treatment
Description: as §3, §4, §5

[8] = tested on: DU-145 prostate cancer cells; experiment: MTT metabolism assay; format: cell-based; conditions: Homo sapiens, read-out: IC50 for cell viability measured by MTT assay
Description: (§2) Cells were plated in 96-well plates in 100 μl medium and allowed to attach overnight. […] Media was aspirated after 24 or 72 hours and replaced with 100 μl complete media containing 1 mg/ml MTT and incubated for three hours at 37° C. in 5% CO2 humidified incubator. Media was then aspirated and DMSO was added. Cells were incubated for 10 min at room temperature while shaking, and the absorbance was determined at 540 nm using a μQuant spectrophotometric plate reader (Bio-TEK, Winooski, Vt.).

A549 lung cancer cells = experiment: MTT metabolism assay; format: cell-based; conditions: Homo sapiens, mean ± SD of 3 to 5 experiments, read-out: IC50 for cell viability measured by MTT assay
Description: as §2

[9] = tested on: RPMI-8226 multiple myeloma cells; experiment: MTT metabolism assay; format: cell-based; conditions: Homo sapiens, mean ± SD of 3 to 5 experiments, read-out: IC50 for cell viability measured by MTT assay
Description: as §2

CaLu-1 lung cancer cells = experiment: MTT metabolism assay; format: cell-based; conditions: Homo sapiens, mean ± SD of 3 to 5 experiments, read-out: IC50 for cell viability measured by MTT assay
Description: as §2

[10] = tested on: LNCaP prostate cancer cells; experiment: MTT metabolism assay; format: cell-based; conditions: Homo sapiens, mean ± SD of 3 to 5 experiments, read-out: IC50 for cell viability measured by MTT assay
Description: as §2

[11] = tested on: MCF-10A breast epithelial cells; experiment: MTT metabolism assay; format: cell-based; conditions: Homo sapiens, mean ± SD of 3 to 5 experiments, read-out: IC50 for cell viability measured by MTT assay
Description: as §2

[12] = tested on: HPDE6-C7 (C7) pancreatic epithelial cells; experiment: MTT metabolism assay; format: cell-based; conditions: Homo sapiens, HPDE6c7, mean ± SD of 3 to 5 experiments, read-out: IC50 for cell viability measured by MTT assay
Description: as §2

[13] = tested on: U266 multiple myeloma cells; experiment: MTT metabolism assay; format: cell-based; conditions: Homo sapiens, U-266, mean ± SD of 3 to 5 experiments, read-out: IC50 for cell viability measured by MTT assay
Description: as §2

[14] = tested on: T80 ovarian epithelial cells; experiment: MTT metabolism assay; format: cell-based; conditions: Homo sapiens, Epithelial cell, mean ± SD of 3 to 5 experiments, read-out: IC50 for cell viability measured by MTT assay
Description: as §2

[15] = read-out: Proliferation 24 h (IC50 values)
[16] = read-out: Viability 24 h (IC50 values), primary MM cells, 24 h, Table 5: one value per patient, mean over patients

## CC(C)C[C@H](NC(=O)[C@H](Cc1ccccc1)NC(=O)c1cnccn1)B(O)O [Bortezomib, reference compound]
[1]; Homo sapiens, Multiple myeloma cell, read-out: Proliferation 24 h (IC50 values, μM)
  IC50: > 10 µM
[1]; [15]
  IC50: > 10 µM
[2]; primary MM cells, 48 h, Table 5: one value per patient, b176: mean over patients, listed as bortezomib, read-out: Viability 48 h (IC50 values)
  IC50: 0.14 ± 0.08 µM
[2]; [16]
  IC50: 0.19 µM and 0.28 µM
[2]; read-out: Viability 72 h (IC50 values), primary MM cells, 72 h, Table 5: one value per patient, b176: mean over patients, listed as bortezomib
  IC50: 0.046 ± 0.008 µM
[3]
  inhibition at 1 mg/kg: 0%
[4]
  inhibition at 1 mg/kg: 70%
[5]
  average tumor size of A549-derived xenografts: 864±207 mm^3
[6]; CT-L inhibition
  difference in potency between bortezomib and PI-083: 100 fold
[7]; A549 tumors extracted 2 hours after last i.p. injection (1 mpk), vs DMSO-treated controls
  inhibition of tumor PGPH activity: 68%
[8]; DU-145, 24 h
  IC50: > 30 µM
[8]; DU-145, 72 h
  IC50: 0.025 ± 0.002 µM
A549 lung cancer cells; A549, 24 h
  IC50: > 30 µM
A549 lung cancer cells; A549, 72 h
  IC50: 0.41 ± 0.07 µM
[9]; RPMI-8226, 24 h
  IC50: 0.049 ± 0.025 µM
[9]; RPMI-8226, 72 h
  IC50: 0.026 ± 0.003 µM
CaLu-1 lung cancer cells; CaLu-1, 24 h
  IC50: > 30 µM
CaLu-1 lung cancer cells; CaLu-1, 72 h
  IC50: 0.022 ± 0.002 µM
[10]; 24 h
  IC50: > 30 µM
[10]; 72 h
  IC50: 0.057 ± 0.004 µM
[11]; 24 h
  IC50: > 30 µM
[11]; 72 h
  IC50: 0.15 ± 0.074 µM
[12]; C7, 24 h
  IC50: > 30 µM
[12]; C7, 72 h
  IC50: 0.032 ± 0.001 µM
[13]; U266, 24 h
  IC50: > 30 µM
[14]; T80, 24 h
  IC50: > 30 µM
[14]; T80, 72 h
  IC50: 0.014 ± 0.001 µM

## O=C1C(Cl)=C(Nc2ccc(S(=O)(=O)Nc3ccccn3)cc2)C(=O)c2ccccc21 [PI-083, 4-(3-chloro-1,4-dioxo-1,4-dihydronaphthalen-2-ylamino)-N-(pyridin-2-yl)benzenesulfonamide]
[1]; [15]
  IC50: 6.6 µM and 1.3 µM and 2.2 µM and 2.6 µM and 1.7 µM and 2.8 µM and 10 µM and 5 µM and 2.9 µM
[2]; primary MM cells, 48 h, Table 5: one value per patient, b176: mean over patients, read-out: Viability 48 h (IC50 values)
  IC50: 1.79 µM and 2.6 µM and 3.6 µM and 0.9 µM and 1.5 µM
[2]; [16]
  IC50: > 10 µM and 2.2 µM and 3.4 µM and 1.8 µM and 2 µM
[2]; read-out: Viability 72 h (IC50 values), primary MM cells, 72 h, Table 5: one value per patient, b176: mean over patients
  IC50: 1.6 µM and 2.2 µM and 2.6 µM and 1.3 µM and 1.8 µM and 0.35 µM
[3]
  inhibition at 1 mg/kg: 12%
[4]
  inhibition at 1 mg/kg: 43%
[5]
  tumor growth inhibition, A549 xenografts: 54%
  average tumor size of A549-derived xenografts: about 511±134 mm^3
[6]; PI-083 derivatives (Table 7, naphthoquinone library), purified rabbit 20S proteasome, read-out: IC50 (μM) Chymotrypsin-like activity
  IC50: 1.2 ± 1 µM
[6]; purified 20S rabbit proteasome, Table 4: means of 3 experiments ± standard error, read-out: IC50 for CT-L activity in vitro
  IC50: 1 µM
[7]; A549, mouse, ip, read-out: inhibition of tumor PGPH activity
  inhibition at 1 mg/kg: 34%
[8]; DU-145, 24 h
  IC50: 8.6 ± 0.63 µM
[8]; DU-145, 72 h
  IC50: 5 ± 0.72 µM
A549 lung cancer cells; A549, 24 h
  IC50: 41 ± 17 µM
A549 lung cancer cells; A549, 72 h
  IC50: 11 ± 6.7 µM
[9]; RPMI-8226, 24 h
  IC50: 7.4 ± 0.38 µM
[9]; RPMI-8226, 72 h
  IC50: 10 ± 4 µM
CaLu-1 lung cancer cells; CaLu-1, 24 h
  IC50: 7.3 ± 0.43 µM
CaLu-1 lung cancer cells; CaLu-1, 72 h
  IC50: 4.9 ± 1.2 µM
[10]; 24 h
  IC50: 14 ± 2.8 µM
[10]; 72 h
  IC50: 5.2 ± 1.1 µM
[11]; 24 h
  IC50: 17 ± 0.86 µM
[11]; 72 h
  IC50: 4.2 ± 2.1 µM
[12]; C7, 24 h
  IC50: 5.1 ± 0.53 µM
[12]; C7, 72 h
  IC50: 4.2 ± 1.6 µM
[13]; U266, 24 h
  IC50: 23 ± 1.7 µM
[13]; U266, 72 h
  IC50: 7 ± 1.5 µM
[14]; T80, 24 h
  IC50: 2.7 ± 0.53 µM
[14]; T80, 72 h
  IC50: 1.7 ± 0.39 µM
